Source: patent publication US4206117A, “Pyridinyl aminoalkyl ethers” (BASF Aktiengesellschaft, priority 1977, dated 1980)

Columns and labels:
[1] = Acute toxicity, intraperitoneal administration; conditions: mouse, in vivo, ip, female Swiss mice, within 24 hours, read-out: Acute toxicity LD 50
Procedure: (§1) The acute toxicity was determined on groups of 10 or 20 female Swiss mice, weighing 20-26 g, the compounds being administered intraperitoneally.

[2] = tested on: Aconitineinduced arrhythmia, rats; assay: animal or person; assay type: in vivo, rats (Sprague Dawley); conditions: for ED50 / Emax: Rattus norvegicus, po; for ED50: 1 h, read-out: Effective dose ED 50 (extends the duration of aconitine infusion by 50%); for Emax: read-out: R.M.A. (relative maximum activity); for Maximum action: Prolongation of the duration of aconitine infusion, Δ% / R.M.A. (relative maximum activity): at the highest nontoxic dose; for Maximum action: Prolongation of the duration of aconitine infusion, Δ% / Maximum action: Dose (highest nontoxic dose): oral, rats; for R.A. (relative activity) / R.M.A. (relative maximum activity): quinidine = 1.00
Procedure: (§2) To determine the anti-arrhythmic activity, the drugs were administered orally to rats (Sprague Dawley, weight from 180 to 240 g) 45 minutes before the start of the narcosis.
(§3) The animals were narcotized with thiobutabartial (100 mg/kg administered intraperitoneally). The arrhythmogenic substance used was aconitine, which was administered by intravenous infusion (at a rate of 0.005 mg/kg.min) 60 minutes after administration of the test substance.
(§4) For a quantitative evaluation of the linear relation between log dose (mg/kg) of the test substances and relative prolongation of the duration of aconitine infusion (Δ%), the dose which extended the duration of infusion by 50% (ED 50) was determined.

[3] = Therapeutic range, quotient of LD 50 (mice) and ED 50 (rats); assay type: in vivo; conditions: in vivo; LD 50 mice i.p. / ED 50 rats oral
Procedure: as §2
as §3, with “substance. In the case of untreated animals (N=30), arrhythmias occurred after an average of 3.7±0.9 minutes, the commencement of which can be delayed by anti-arrhythmic agents, the delay depending on the dosage.” for “substance.”
as §4, with “determined. The prior art anti-arrhythmic agent quinidine served as a comparative substance.” for “determined.”
as §1

[4] = tested on: Aconitineinduced arrhythmia, rats; assay: as above; assay type: in vivo; conditions: relative to quinidine
Procedure: as §2
as §3, with “substance. In the case of untreated animals (N=30), arrhythmias occurred after an average of 3.7±0.9 minutes, the commencement of which can be delayed by anti-arrhythmic agents, the delay depending on the dosage.” for “substance.”
as §4, with “determined. The prior art anti-arrhythmic agent quinidine served as a comparative substance.” for “determined.”
as §1

| SMILES | LD50 at 24 h [1] [mg/kg] | ED50 [2] [mg/kg] | Emax [2] [%] | Maximum action: Prolongation of the duration of aconitine infusion, Δ% [2] [%] | Maximum action: Dose (highest nontoxic dose) [2] [mg/kg] | R.A. (relative activity) [2] | selectivity ratio [3] | R.M.A. (relative maximum activity) [2] | effect achieved with the maximum dose, times as great as that of quinidine ([2]; relative to quinidine) [times] | anti-arrhythmic action, times more powerful than that of quinidine ([2]; relative to quinidine) [times] | therapeutic range, times as great as that of quinidine [4] [times] | therapeutic range compared with that of quinidine (in words) [4] |
| --- | --- | --- | --- | --- | --- | --- | --- | --- | --- | --- | --- | --- |
| CCOC(=O)c1c(Cc2ccccc2)nc(C)c(OCCCN(C)C)c1C(=O)OCC [Example 25] | 137 | 15.9 | 147 | 195 | 100 | 2.67 | 8.62 |  |  |  |  |  |
| CCc1nc(Cc2ccccc2)c2c(c1OCCCN(C)C)COC2 [Example 29] | 104 | 18.1 | 204 | 271 | 215 | 2.34 | 5.75 |  |  |  |  |  |
| CCNCCCCOc1c(C)nc(Cc2ccccc2)c2c1COC2 [Example 58] | 114 | 18.8 | 140 | 186 | 100 | 2.27 | 6.06 |  |  |  |  |  |
| CCCN(CCC)CCCOc1c(C)nc(Cc2ccccc2)c2c1COC2 [Example 36] | 180 | 21 | 165 | 219 | 100 | 2.01 | 8.57 |  |  |  |  |  |
| Cc1nc(Cc2ccccc2)c2c(c1OCCC(C)CCNC(C)C)COC2 (stereo not drawn) [Example 55] |  |  |  | 333 | 100 | 3.47 |  | 2.50 |  |  |  |  |
| Cc1nc(Cc2ccccc2)c2c(c1OCCCN1CCNCC1)COC2 [Example 43] | ~147 | 28.5 | 116 | 154 | 46.4 | 1.48 | ~5.16 |  | 1.2 |  |  |  |
| Cc1nc(Cc2ccccc2)c2c(c1OCCN(C)C)COC2.Cl.Cl [Example 1, 4-benzyl-6-methyl-1,3-dihydro-furo[3,4-c]pyridin-7-yl β-dimethylaminoethyl ether bis-hydrochloride] | ~147 | 31 | 138 | 184 | 68.1 | 1.36 | ~4.74 |  |  |  |  |  |
| Cc1nc(Cc2ccccc2)c2c(c1OCCCCN(C(C)C)C(C)C)COC2 [Example 64] | 156 | 21.2 | 238 | 317 | 100 | 2.01 | 7.36 |  |  |  |  |  |
| Cc1nc(Cc2ccccc2)c2c(c1OCCCCNC(C)C)COC2 [Example 47] |  |  |  | 358 | 100 | 7.47 |  | 2.69 |  | 7.5 | 4.1 |  |
| CCC(C)NCCCCOc1c(C)nc(Cc2ccccc2)c2c1COC2 (stereo not drawn) [Example 60] | 101 | 21.1 | 185 | 246 | 100 | 2.00 | 4.79 |  |  |  |  |  |
| Cc1nc(Cc2ccccc2)c2c(c1OCCCNC(C)C)COC2 [Example 34, 4-benzyl-6-methyl-1,3-dihydro-furo[3,4-c]pyridin-7-yl 3-isopropylaminopropyl ether] |  |  |  | 457 | 215 | 1.46 |  | 3.44 | 3.4 |  |  |  |
| COC(=O)c1c(Cc2ccccc2)nc(C)c(OCCCN(C)C)c1C(=O)OC [Example 18] | 170 | 9.82 | 222 | 295 | 215 | 4.35 | 17.3 |  |  |  |  |  |
| CCN(CC)CCC(C)CCOc1c(C)nc(Cc2ccccc2)c2c1COC2 (stereo not drawn) [Example 57] |  |  |  | 261 | 100 | 3.74 |  | 1.96 |  |  |  |  |
| Cc1nc(Cc2ccccc2)c2c(c1OCCCCNCCC(C)(C)O)COC2 [Example 68] | ~68.1 | 15.8 | 181 | 241 | 100 | 2.70 | ~4.31 |  |  |  |  | as great as |
| CN(C)CCCOc1c(Cc2ccccc2)nc(Cc2ccccc2)c2c1COC2 [Example 32] |  |  |  | 319 | 215 | 2.84 |  | 2.40 |  |  |  |  |
| Cc1nc(Cc2ccccc2)c2c(c1OCCCCNC(C)(C)C)COC2 [Example 61] |  |  |  | 298 | 46.4 | 4.60 |  | 2.24 |  |  |  |  |
| C=C[C@H]1C[N@@]2CC[C@H]1C[C@@H]2[C@@H](O)c1ccnc2ccc(OC)cc12 [Quinidine, quinidine, reference compound] |  |  |  | 133 |  |  |  |  |  |  |  |  |
| Cc1nc(Cc2ccccc2)c2c(c1OCCCCCNC(C)C)COC2 [Example 52] | 104 | 16 | 169 | 225 | 215 | 2.64 | 6.5 |  |  |  |  |  |
| Cc1nc(Cc2ccccc2)c2c(c1OCC(O)CNC(C)C)COC2.Cl (stereo not drawn) [Example 69, 4-benzyl-6-methyl-1,3-dihydrofuro[3,4-c]pyridin-7-yl 2-hydroxy-3-isopropylaminopropyl ether hydrochloride] | 107 | 23 | 164 | 218 | 464 | 1.84 | 4.65 |  |  |  |  |  |
